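Exposure lasted 48 hours, with cells grown in 96-well plates and compounds tested at five concentrations. TGI denotes the concentration required for complete inhibition of growth.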
Legend:
Test in all cases: growth of human tumour cells (NCI), 48 h
786-0 renal = system: 786-0 renal
A498 renal = system: A498 renal
A549 NSCLC = system: A549 NSCLC
ACHN renal = system: ACHN renal
BT-549 breast = system: BT-549 breast
CAKI-1 renal = system: CAKI-1 renal
CCRF-CEM leukemia = system: CCRF-CEM leukemia
COLO 205 colon = system: COLO 205 colon
DU-145 prostate = system: DU-145 prostate
EKVX NSCLC = system: EKVX NSCLC
HCC-2998 colon = system: HCC-2998 colon
HCT-116 colon = system: HCT-116 colon
HCT-15 colon = system: HCT-15 colon
HL-60(TB) leukemia = system: HL-60(TB) leukemia
HOP-62 NSCLC = system: HOP-62 NSCLC
HOP-92 NSCLC = system: HOP-92 NSCLC
HS 578T breast = system: HS 578T breast
HT29 colon = system: HT29 colon
IGROV1 ovarian = system: IGROV1 ovarian
K-562 leukemia = system: K-562 leukemia
KM12 colon = system: KM12 colon
LOX IMVI melanoma = system: LOX IMVI melanoma
M14 melanoma = system: M14 melanoma
MALME-3M melanoma = system: MALME-3M melanoma
MCF7 breast = system: MCF7 breast
MDA-MB-435 = system: MDA-MB-435
MDA-N = system: MDA-N
MOLT-4 leukemia = system: MOLT-4 leukemia
NCI-H226 lung = system: NCI-H226 lung
NCI-H23 lung = system: NCI-H23 lung
NCI-H460 lung = system: NCI-H460 lung
NCI-H522 lung = system: NCI-H522 lung
NCI/ADR-RES ovarian = system: NCI/ADR-RES ovarian
OVCAR-3 ovarian = system: OVCAR-3 ovarian
OVCAR-5 ovarian = system: OVCAR-5 ovarian
OVCAR-8 ovarian = system: OVCAR-8 ovarian
PC-3 prostate = system: PC-3 prostate
RXF 393 renal = system: RXF 393 renal
SF-268 CNS = system: SF-268 CNS
SF-295 CNS = system: SF-295 CNS
SF-539 CNS = system: SF-539 CNS
SK-MEL-2 melanoma = system: SK-MEL-2 melanoma
SK-MEL-28 melanoma = system: SK-MEL-28 melanoma
SK-MEL-5 melanoma = system: SK-MEL-5 melanoma
SK-OV-3 ovarian = system: SK-OV-3 ovarian
SN12C renal = system: SN12C renal
SNB-19 CNS = system: SNB-19 CNS
SNB-75 CNS = system: SNB-75 CNS
SW-620 colon = system: SW-620 colon
T-47D breast = system: T-47D breast
UACC-257 melanoma = system: UACC-257 melanoma
UACC-62 melanoma = system: UACC-62 melanoma
UO-31 renal = system: UO-31 renal
OVCAR-4 ovarian = system: OVCAR-4 ovarian
RPMI-8226 leukemia = system: RPMI-8226 leukemia
TK-10 renal = system: TK-10 renal
U251 CNS = system: U251 CNS
MDA-MB-231 breast = system: MDA-MB-231 breast

COc1cc(/C=N/NC(=O)c2c(Cl)c(Cl)c(Cl)c(Cl)c2-c2nc3ccccc3[nH]2)ccc1O
TGI (786-0 renal): > 100 µM
TGI (A498 renal): 61.4 µM
TGI (A549 NSCLC): > 100 µM
TGI (ACHN renal): 62.5 µM
TGI (BT-549 breast): 67.2 µM
TGI (CAKI-1 renal): 49.8 µM
TGI (CCRF-CEM leukemia): > 100 µM
TGI (COLO 205 colon): 73 µM
TGI (DU-145 prostate): 56.5 µM
TGI (EKVX NSCLC): 82.6 µM
TGI (HCC-2998 colon): 33.5 µM
TGI (HCT-116 colon): 43.6 µM
TGI (HCT-15 colon): 79.2 µM
TGI (HL-60(TB) leukemia): 53.2 µM
TGI (HOP-62 NSCLC): 75.8 µM
TGI (HOP-92 NSCLC): 33.4 µM
TGI (HS 578T breast): > 100 µM
TGI (HT29 colon): 62.9 µM
TGI (IGROV1 ovarian): > 100 µM
TGI (K-562 leukemia): > 100 µM
TGI (KM12 colon): 74.9 µM
TGI (LOX IMVI melanoma): 61.1 µM
TGI (M14 melanoma): 90.9 µM
TGI (MALME-3M melanoma): 52.9 µM
TGI (MCF7 breast): 44.7 µM
TGI (MDA-MB-435): 91.7 µM
TGI (MDA-N): 75.7 µM
TGI (MOLT-4 leukemia): > 100 µM
TGI (NCI-H226 lung): 87.6 µM
TGI (NCI-H23 lung): 55.3 µM
TGI (NCI-H460 lung): 57 µM
TGI (NCI-H522 lung): > 100 µM
TGI (NCI/ADR-RES ovarian): > 100 µM
TGI (OVCAR-3 ovarian): > 100 µM
TGI (OVCAR-5 ovarian): 86.7 µM
TGI (OVCAR-8 ovarian): > 100 µM
TGI (PC-3 prostate): > 100 µM
TGI (RXF 393 renal): 46.4 µM
TGI (SF-268 CNS): > 100 µM
TGI (SF-295 CNS): > 100 µM
TGI (SF-539 CNS): > 100 µM
TGI (SK-MEL-2 melanoma): 41.1 µM
TGI (SK-MEL-28 melanoma): > 100 µM
TGI (SK-MEL-5 melanoma): 34.2 µM
TGI (SK-OV-3 ovarian): > 100 µM
TGI (SN12C renal): > 100 µM
TGI (SNB-19 CNS): > 100 µM
TGI (SNB-75 CNS): 60.5 µM
TGI (SW-620 colon): > 100 µM
TGI (T-47D breast): 15.9 µM
TGI (UACC-257 melanoma): 87.6 µM
TGI (UACC-62 melanoma): 32.4 µM
TGI (UO-31 renal): > 100 µM

COc1ccc(N=NC(=O)NC(CC(C)C)C(=O)NC(CC(C)C)C(=O)O)cc1 (stereo unspecified)
TGI (786-0 renal): > 100 µM
TGI (A498 renal): > 100 µM
TGI (A549 NSCLC): > 100 µM
TGI (ACHN renal): 80.2 µM
TGI (BT-549 breast): > 100 µM
TGI (CAKI-1 renal): > 100 µM
TGI (CCRF-CEM leukemia): > 100 µM
TGI (COLO 205 colon): 49.5 µM
TGI (DU-145 prostate): > 100 µM
TGI (EKVX NSCLC): > 100 µM
TGI (HCC-2998 colon): > 100 µM
TGI (HCT-116 colon): > 100 µM
TGI (HCT-15 colon): > 100 µM
TGI (HL-60(TB) leukemia): > 100 µM
TGI (HOP-62 NSCLC): > 100 µM
TGI (HOP-92 NSCLC): > 100 µM
TGI (HS 578T breast): > 100 µM
TGI (HT29 colon): > 100 µM
TGI (IGROV1 ovarian): > 100 µM
TGI (K-562 leukemia): 80.3 µM
TGI (KM12 colon): > 100 µM
TGI (LOX IMVI melanoma): > 100 µM
TGI (M14 melanoma): > 100 µM
TGI (MALME-3M melanoma): > 100 µM
TGI (MCF7 breast): > 100 µM
TGI (MDA-MB-435): > 100 µM
TGI (MDA-N): > 100 µM
TGI (MOLT-4 leukemia): > 100 µM
TGI (NCI-H226 lung): > 100 µM
TGI (NCI-H23 lung): > 100 µM
TGI (NCI-H460 lung): > 100 µM
TGI (NCI-H522 lung): > 100 µM
TGI (NCI/ADR-RES ovarian): > 100 µM
TGI (OVCAR-3 ovarian): > 100 µM
TGI (OVCAR-4 ovarian): > 100 µM
TGI (OVCAR-5 ovarian): > 100 µM
TGI (OVCAR-8 ovarian): > 100 µM
TGI (PC-3 prostate): > 100 µM
TGI (RPMI-8226 leukemia): > 100 µM
TGI (RXF 393 renal): > 100 µM
TGI (SF-268 CNS): > 100 µM
TGI (SF-295 CNS): > 100 µM
TGI (SF-539 CNS): 57.6 µM
TGI (SK-MEL-28 melanoma): > 100 µM
TGI (SK-MEL-5 melanoma): > 100 µM
TGI (SN12C renal): > 100 µM
TGI (SNB-19 CNS): > 100 µM
TGI (SNB-75 CNS): > 100 µM
TGI (SW-620 colon): > 100 µM
TGI (T-47D breast): > 100 µM
TGI (TK-10 renal): > 100 µM
TGI (U251 CNS): > 100 µM
TGI (UACC-257 melanoma): > 100 µM
TGI (UACC-62 melanoma): > 100 µM
TGI (UO-31 renal): > 100 µM

NC12CC3C4CC5(N)CC3C(C1)C(C5)C4C2
TGI (786-0 renal): > 100 µM
TGI (A498 renal): > 100 µM
TGI (A549 NSCLC): > 100 µM
TGI (ACHN renal): > 100 µM
TGI (BT-549 breast): > 100 µM
TGI (CAKI-1 renal): > 100 µM
TGI (CCRF-CEM leukemia): > 100 µM
TGI (COLO 205 colon): > 100 µM
TGI (EKVX NSCLC): > 100 µM
TGI (HCT-116 colon): > 100 µM
TGI (HCT-15 colon): > 100 µM
TGI (HL-60(TB) leukemia): > 100 µM
TGI (HOP-62 NSCLC): > 100 µM
TGI (HOP-92 NSCLC): > 100 µM
TGI (HS 578T breast): > 100 µM
TGI (HT29 colon): > 100 µM
TGI (IGROV1 ovarian): > 100 µM
TGI (K-562 leukemia): > 100 µM
TGI (KM12 colon): > 100 µM
TGI (LOX IMVI melanoma): > 100 µM
TGI (M14 melanoma): > 100 µM
TGI (MALME-3M melanoma): > 100 µM
TGI (MCF7 breast): > 100 µM
TGI (MDA-MB-231 breast): > 100 µM
TGI (MDA-MB-435): > 100 µM
TGI (MDA-N): > 100 µM
TGI (MOLT-4 leukemia): > 100 µM
TGI (NCI-H226 lung): > 100 µM
TGI (NCI-H23 lung): > 100 µM
TGI (NCI-H460 lung): > 100 µM
TGI (NCI-H522 lung): > 100 µM
TGI (NCI/ADR-RES ovarian): > 100 µM
TGI (OVCAR-3 ovarian): > 100 µM
TGI (OVCAR-4 ovarian): > 100 µM
TGI (OVCAR-5 ovarian): > 100 µM
TGI (OVCAR-8 ovarian): > 100 µM
TGI (PC-3 prostate): > 100 µM
TGI (RXF 393 renal): > 100 µM
TGI (SF-268 CNS): > 100 µM
TGI (SF-295 CNS): > 100 µM
TGI (SK-MEL-2 melanoma): > 100 µM
TGI (SK-MEL-28 melanoma): > 100 µM
TGI (SK-MEL-5 melanoma): > 100 µM
TGI (SK-OV-3 ovarian): > 100 µM
TGI (SN12C renal): > 100 µM
TGI (SNB-19 CNS): > 100 µM
TGI (SW-620 colon): > 100 µM
TGI (T-47D breast): > 100 µM
TGI (TK-10 renal): > 100 µM
TGI (U251 CNS): > 100 µM
TGI (UACC-257 melanoma): > 100 µM
TGI (UACC-62 melanoma): > 100 µM
TGI (UO-31 renal): > 100 µM
